In US4757061A, “4-amino androstendione derivatives and process for their preparation” (Farmitalia Carlo Erba, S.p.A., priority 1985, dated 1988):

How the values were obtained:
[1] = molecular target: T1, human placental aromatase (Homo sapiens, UniProt P11511); experiment: Aromatase inhibition in vitro (human placental aromatase, 3H2O release assay); format: biochemical
T1 construct: The enzyme system was isolated from the microsomal fraction of human placental tissue; from tissue; host or cells: human placental tissue, microsomal fraction
T1 sequence (P11511 1-503): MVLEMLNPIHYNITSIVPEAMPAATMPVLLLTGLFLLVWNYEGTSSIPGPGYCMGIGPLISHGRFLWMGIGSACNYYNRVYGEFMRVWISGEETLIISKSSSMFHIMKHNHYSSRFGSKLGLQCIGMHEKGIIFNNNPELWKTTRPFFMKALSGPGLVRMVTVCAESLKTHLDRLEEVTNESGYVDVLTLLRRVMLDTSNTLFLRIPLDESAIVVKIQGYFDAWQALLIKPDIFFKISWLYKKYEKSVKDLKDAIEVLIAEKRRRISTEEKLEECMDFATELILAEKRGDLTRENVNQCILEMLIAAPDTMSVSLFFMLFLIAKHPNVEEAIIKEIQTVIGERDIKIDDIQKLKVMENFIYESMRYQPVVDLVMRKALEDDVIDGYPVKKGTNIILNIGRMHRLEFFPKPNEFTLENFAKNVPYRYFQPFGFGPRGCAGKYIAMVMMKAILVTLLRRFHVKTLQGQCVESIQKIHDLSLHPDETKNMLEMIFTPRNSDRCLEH
Procedure: Aromatase inhibition by the compounds of the present invention was determined, e.g., both in vitro (human placental aromatase) and in vivo (ovarian aromatase activity) in rats.
(a) Aromatase inhibition in vitro
(§1) The enzyme system was isolated from the microsomal fraction of human placental tissue according to standard procedure. The assay of Thompson and Siiteri [E. A. Thompson and P. K. Siiteri, J. Biol. Chem. 249, 5364, (1974)] which determines the rate of aromatization as measured by the liberation of ^3 H2 O from 4-[1β,2β-^3 H] androsten-3,17-dione was used. All incubations were carried out in a shaking water bath at 37° C. in air in 10 mM potassium phosphate buffer, pH 7.5, which contained 100 mM KCl, 1 mM EDA and 1 mM dithiothreitol. The experiments were carried out in 1 ml incubation volume containing 50 nM 4-[…], various concentrations of the inhibitors, 100 μM NADPH and 0.05 mg of microsomal proteins. After 15 minutes of incubation the reaction was stopped by the addition of chloroform (5 ml). After centrifugation at 1500×g for 5 minutes, aliquots (0.5 ml) were removed from the water phase for determination of ^3 H2 O formed. The concentration of each compound required to reduce control aromatase by 50% (IC50) was determined by plotting % inhibition versus log of inhibitor concentration. The relative potency of each compound versus 4 OH-A was calculated according to the relation: [formula] (b) Aromatase inhibition in vivo in rats Adult female rats were twice treated subcutaneously with 100 I.U. pregnant mares' serum gonadotropin (PMSG) at 4 days' interval, in order to increase ovarian aromatase activity, according to Brodie's procedure [A. M. H. Brodie et al., Steroids 38, 693, (1981)]. Three days after the second PMSG treatment, groups of 6 animals each were given orally the vehicle (0.5% methocel) or the inhibitor at 30 mg/kg. Animals were killed 24 hours later, microsomes were isolated from ovaries and their aromatase activity determined using a method similar to that described in (a).

rat ovarian aromatase = experiment: Aromatase inhibition in vivo in rats (ovarian aromatase activity); settings: for % Aromatase inhibition at 30 mg/kg p.o.: PMSG-treated adult female rats, ovaries taken 24 hours later; for In vivo effectiveness by oral route: 30 mg/kg
From the text: The aromatase inhibitors for formula (I) can find also use in the control of reproduction: indeed a decrease in oestrogen levels in vivo results in gonad-inhibiting activity and in insufficient uterine development; aromatase inhibitors may be at the same time implantation inhibitors. Another application of the compounds of the invention is in the treatment of prostatic hypertrophy or hyperplasia, related to an excessive oestrogen production and the shifting of the oestrogen/androgen ratio to higher values. Furthermore, the compounds of the invention, producing decrease in estradiol formation, may be useful for the treatment of male fertility disturbances (Drugs 28: 263, 1984). […] Accordingly, decreased estradiol formation, as can be obtained through administration of the compounds of the invention, leads to an improvement of both sperm count and fertility, in patients with infertility due to oligozoospermia. Aromatase inhibition by the compounds of the present invention was determined, e.g., both in vitro (human placental aromatase) and in vivo (ovarian aromatase activity) in rats.
as §1

[2] = cited from earlier work
[3] = Resistance to hepatic metabolization; settings: oral route

Row | Compound | IC50 [1] | Relative potency (versus 4-OH-A) [1] | % Aromatase inhibition at 30 mg/kg p.o. (rat ovarian aromatase) | In vivo effectiveness by oral route (rat ovarian aromatase) | Conjugation after oral administration [2] | Aromatase inhibition in vitro ([1]; in vitro) | In vitro potency relative to 4-OH-A ([1]; in vitro) | Aromatase inhibition in vivo (rat ovarian aromatase; in vivo) | In vivo activity compared to androsta-1,4-dien-3,17-dione (rat ovarian aromatase; in vivo) | Potency relative to androsta-1,4-dien-3,17-dione (rat ovarian aromatase; stated as in vivo) | Potency relative to Δ^1-testololactone (times more potent) (rat ovarian aromatase; stated as in vivo) | Resistance to hepatic metabolization [3]
1 | C[C@]12C=CC(=O)C=C1CC[C@@H]1[C@@H]2CC[C@]2(C)OC(=O)CC[C@@H]12 [Δ^1 -testololactone, reference compound] | 8240 nM | 0.005 | inactive |  |  |  |  |  |  |  |  | 
2 | C[C@]12CCC(=O)C(O)=C1CC[C@@H]1[C@@H]2CC[C@]2(C)C(=O)CC[C@@H]12 [Example 4-OH-A, 4-hydroxyandrost-4-en-3,17-dione, reference compound] | 44 nM |  | inactive | ineffective | extensively conjugated after oral administration |  |  |  |  |  |  | 
3 | C[C@]12CCC(=O)C(N)=C1C=C[C@@H]1[C@@H]2CC[C@]2(C)C(=O)CC[C@@H]12 [FCE 24210, 4-aminoandrosta-4,6-dien-3,17-dione] | 148 nM | 0.30 | 70% | very effective when administered in vivo by oral route |  | very potent aromatase inhibitors both in vitro and in vivo | about three times lower than that of 4-OH-A | very potent aromatase inhibitors both in vitro and in vivo | very superior to that of androsta-1,4-dien-3,17-dione | about equipotent as androsta-1,4-dien-3,17-dione | about 55 times | unusual resistance to hepatic metabolization
4 | C[C@]12C=CC(=O)C=C1CC[C@@H]1[C@@H]2CC[C@]2(C)C(=O)CC[C@@H]12 [androsta-1,4-dien-3,17-dione, reference compound] |  |  | 37% |  |  |  |  |  |  |  |  | 
